Assay results: US8101774B2, “Ester derivatives and medicinal use thereof” (Japan Tobacco Inc., priority 2004, dated 2012)

Each compound was assayed against T1, Microsomal triglyceride transfer protein (MTP) from human small intestine microsome (Homo sapiens, UniProt P55157) (assay: Inhibition test of interliposomal triglyceride (TG) transfer activity by MTP). Details: purified MTP from human small intestine microsome, 37° C., 1.5 hours.
T1 construct: Human small intestine microsome was dialyzed against 10 mM phosphate buffer; tissue Tissue Transforming Technologies, Inc; host or cells: human small intestine microsome
T1 sequence (P55157 19-894): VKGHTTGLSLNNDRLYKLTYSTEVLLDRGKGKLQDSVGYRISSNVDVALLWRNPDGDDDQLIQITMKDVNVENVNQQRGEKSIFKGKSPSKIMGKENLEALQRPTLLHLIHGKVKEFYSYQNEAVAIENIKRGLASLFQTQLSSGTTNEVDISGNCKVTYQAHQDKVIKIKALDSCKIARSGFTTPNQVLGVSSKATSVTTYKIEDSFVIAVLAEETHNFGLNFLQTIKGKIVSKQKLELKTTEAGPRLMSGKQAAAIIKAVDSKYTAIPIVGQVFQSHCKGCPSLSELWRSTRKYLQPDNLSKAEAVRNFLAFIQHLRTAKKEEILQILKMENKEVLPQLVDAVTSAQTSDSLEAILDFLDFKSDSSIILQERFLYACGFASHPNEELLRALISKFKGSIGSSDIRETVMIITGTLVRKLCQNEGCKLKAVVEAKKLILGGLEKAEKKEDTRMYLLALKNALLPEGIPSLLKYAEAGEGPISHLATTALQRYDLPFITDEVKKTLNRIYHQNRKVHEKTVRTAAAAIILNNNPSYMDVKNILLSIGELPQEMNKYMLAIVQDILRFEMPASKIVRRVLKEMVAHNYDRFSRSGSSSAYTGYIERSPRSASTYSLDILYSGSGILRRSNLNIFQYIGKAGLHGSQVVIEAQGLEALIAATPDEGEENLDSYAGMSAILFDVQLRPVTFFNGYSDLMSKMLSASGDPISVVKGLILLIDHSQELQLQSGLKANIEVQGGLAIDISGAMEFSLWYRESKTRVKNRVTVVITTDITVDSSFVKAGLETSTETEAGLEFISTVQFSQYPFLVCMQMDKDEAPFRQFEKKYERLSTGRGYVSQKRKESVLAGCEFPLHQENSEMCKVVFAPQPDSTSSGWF
T1 sequence (P07237 18-508 partner): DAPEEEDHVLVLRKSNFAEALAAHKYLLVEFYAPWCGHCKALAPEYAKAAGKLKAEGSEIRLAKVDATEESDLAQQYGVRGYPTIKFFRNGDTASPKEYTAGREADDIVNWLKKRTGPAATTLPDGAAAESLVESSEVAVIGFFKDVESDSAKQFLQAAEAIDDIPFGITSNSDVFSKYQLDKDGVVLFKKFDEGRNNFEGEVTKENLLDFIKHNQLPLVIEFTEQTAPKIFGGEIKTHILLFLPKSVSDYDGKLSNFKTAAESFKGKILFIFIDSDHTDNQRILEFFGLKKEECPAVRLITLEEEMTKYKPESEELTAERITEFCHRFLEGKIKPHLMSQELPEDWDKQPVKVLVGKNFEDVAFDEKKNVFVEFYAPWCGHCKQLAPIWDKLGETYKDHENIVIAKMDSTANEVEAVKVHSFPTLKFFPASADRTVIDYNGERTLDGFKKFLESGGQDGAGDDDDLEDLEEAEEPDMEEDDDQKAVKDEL
Assay type: biochemical
Summary of the method: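 DEAE-purified human small intestine MTP (50 μL of 20 μg/mL) incubated 1.5 hours at 37° C with ^14C-triolein donor and unlabelled acceptor SUV liposomes in pH 7.4 Tris buffer with 0.5% BSA. Donor removed on DEAE cellulose; acceptor radioactivity counted, blank-corrected against DMSO control, giving percent inhibition and IC50.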

Question: For `CN(C)C(=O)c1cc(CCCC(=O)Oc2ccc(C(=O)OCc3ccncc3)cc2)ccc1NC(=O)c1ccccc1-c1ccc(C(F)(F)F)cc1` [Compound 1-84, 4-[4-(3-dimethylcarbamoyl-4-{(4′-trifluoremethylbiphenyl-2-carbonyl)amino}phenyl)butyryloxy]benzoic acid pyridin-4-ylmethyl ester], which IC50 is on record?
Answer: The IC50 was less than 10 nM.

Question: Which IC50 does the source give for `CN(C)C(=O)c1cc(CCCC(=O)Oc2ccc(C(=O)OCCOCc3ccccc3)cc2)ccc1NC(=O)c1ccccc1-c1ccc(C(F)(F)F)cc1` [Compound 1-89, 4-[4-(3-dimethylcarbamoyl-4-{(4′-trifluoromethylbiphenyl-2-carbonyl)amino}phenyl)butyryloxy]benzoic acid 2-benzyloxyethyl ester] here?
Answer: Its IC50 is less than 10 nM.

Question: For `CN(C)C(=O)c1cc(CCCC(=O)Oc2ccc(C(=O)OC3CCCc4ccccc43)cc2)ccc1NC(=O)c1ccccc1-c1ccc(C(F)(F)F)cc1` (stereo not shown) [Compound 1-108, 4-[4-(3-dimethylcarbamoyl-4-{(4′-trifluoromethylbiphenyl-2-carbonyl)amino}phenyl)butyryloxy]benzoic acid 1,2,3,4-tetrahydronaphthalen-1-yl ester], which IC50 is on record?
Answer: The IC50 was less than 10 nM.

Question: `CN(C)C(=O)Cn1nnc(-c2ccc(OC(=O)CCCc3ccc(NC(=O)c4ccccc4-c4ccc(C(F)(F)F)cc4)c(C(=O)N(C)C)c3)cc2)n1` [Compound 1-105, 4-(3-dimethylcarbamoyl-4-{(4′-trifluoromethylbiphenyl-2-carbonyl)amino}phenyl)butyric acid 4-(2-dimethylcarbamoylmethyl-2H-tetrazol-5-yl)phenyl ester] was tested. Which IC50 did it give?
Answer: Its IC50 is less than 10 nM.

Question: For `COC(=O)c1cc(C)c(OC(=O)CCCc2ccc(NC(=O)c3ccc(C)nc3-c3ccc(C(F)(F)F)cc3)c(C(=O)N(C)C)c2)c(C(F)(F)F)c1` [Compound 1-45, 4-[4-(3-dimethylcarbamoyl-4-{[6-methyl-2-(4-trifluoromethylphenyl)pyridine-3-carbonyl]amino}phenyl)butyryloxy]-3-methyl-5-trifluoromethylbenzoic acid methyl ester], which IC50 is on record?
Answer: Its IC50 is less than 10 nM.

Question: Which IC50 does the source give for `COC(=O)c1ccc(OC(=O)CCCc2ccc(NC(=O)c3cccnc3-c3ccc(C(F)(F)F)cc3)c(C(=O)N(C)C)c2)cc1` [Compound 1-28, 4-[4-(3-dimethylcarbamoyl-4-{[2-(4-trifluoromethylphenyl)pyridine-3-carbonyl]amino}phenyl)butyryloxy]benzoic acid methyl ester] here?
Answer: The IC50 was less than 10 nM.

Question: For `COC(=O)c1cc(Br)c(OC(=O)CCCc2ccc(NC(=O)c3ccc(C)nc3-c3ccc(C(F)(F)F)cc3)c(C(=O)N(C)C)c2)c(OC)c1` [Compound 1-50, 3-bromo-4-[4-(3-dimethylcarbamoyl-4-{[6-methyl-2-(4-trifluoromethylphenyl)pyridine-3-carbonyl]amino}phenyl)butyryloxy]-5-methoxybenzoic acid methyl ester], which IC50 is on record?
Answer: Its IC50 is less than 10 nM.

Question: `CCCOC(=O)c1ccc(OC(=O)CCCc2ccc(NC(=O)c3ccccc3-c3ccc(C(F)(F)F)cc3)c(C(=O)N(C)C)c2)cc1` [Compound 1-8, 4-(4-{3-dimethylcarbamoyl-4-[(4′-trifluoromethylbiphenyl-2-carbonyl)amino]phenyl}butyryloxy) benzoic acid propyl ester] was tested. Which IC50 did it give?
Answer: Its IC50 is less than 10 nM.

Question: How did the IC50 turn out when `COC(=O)c1ccc(OC(=O)CCCc2ccc(NC(=O)c3ccccc3-c3ccc(C(F)(F)F)cc3)c(C(=O)N3CCCC3)c2)cc1` [Compound 1-15, 4-(4-{3-(pyrrolidine-1-carbonyl)-4-[(4′-trifluoromethylbiphenyl-2-carbonyl)amino]phenyl}butyryloxy)benzoic acid methyl ester] was run?
Answer: The IC50 was less than 10 nM.

Question: With `COc1cc(C(=O)OC(C)C)cc(F)c1OC(=O)CCCc1ccc(NC(=O)c2ccc(C)nc2-c2ccc(C(F)(F)F)cc2)c(C(=O)N(C)C)c1` [Compound 1-38, 4-[4-(3-dimethylcarbamoyl-4-{[6-methyl-2-(4-trifluoromethylphenyl)pyridine-3-carbonyl]amino}phenyl)butyryloxy]-3-fluoro-5-methoxybenzoic acid isopropyl ester] as the compound, how does the IC50 read?
Answer: Its IC50 is 10 to 100 nM.

Question: `COC(=O)COC(=O)c1ccc(OC(=O)CCCc2ccc(NC(=O)c3ccccc3-c3ccc(C(F)(F)F)cc3)c(C(=O)N(C)C)c2)cc1` [Compound 1-86, 4-[4-(3-dimethylcarbamoyl-4-{(4′-trifluoromethylbiphenyl-2-carbonyl)amino}phenyl)butyryloxy]benzoic acid methoxycarbonylmethyl ester] was tested. Which IC50 did it give?
Answer: Its IC50 is less than 10 nM.

Question: How did the IC50 turn out when `CCOC(=O)c1cc(Cl)c(OC(=O)CCCc2ccc(NC(=O)c3ccc(C)nc3-c3ccc(C(F)(F)F)cc3)c(C(=O)N(C)C)c2)c(OC)c1` [Compound 1-48, 3-chloro-4-[4-(3-dimethylcarbamoyl-4-{[6-methyl-2-(4-trifluoromethylphenyl)pyridine-3-carbonyl]amino}phenyl)butyryloxy]-5-methoxybenzoic acid ethyl ester] was run?
Answer: Its IC50 is less than 10 nM.

Question: For `CN(C)C(=O)c1cc(CCCC(=O)Oc2ccc(C(=O)OCc3ccccc3)cc2)ccc1NC(=O)c1ccccc1-c1ccc(C(F)(F)F)cc1` [Compound 1-24, 4-(4-{3-dimethylcarbamoyl-4-[(4′-trifluoromethylbiphenyl-2-carbonyl)amino]phenyl}butyryloxy)benzoic acid benzyl ester], which IC50 is on record?
Answer: Its IC50 is less than 10 nM.

Question: With `COc1cc(C(=O)OCCNC(C)=O)cc(Cl)c1OC(=O)CCCc1ccc(NC(=O)c2ccc(C)nc2-c2ccc(C(F)(F)F)cc2)c(C(=O)N(C)C)c1` [Compound 1-114, 3-chloro-4-[4-(3-dimethylcarbamoyl-4-{[6-methyl-2-(4-trifluoromethylphenyl)pyridine-3-carbonyl]amino}phenyl)butyryloxy]-5-methoxybenzoic acid 2-acetylaminoethyl ester] as the compound, how does the IC50 read?
Answer: The IC50 was less than 10 nM.

Question: With `COC(=O)c1ccc(OC(=O)CN(C)Cc2ccc(NC(=O)c3ccccc3-c3ccc(C(F)(F)F)cc3)c(C(=O)N(C)C)c2)cc1` [Compound 2-1, 4-[2-({3-dimethylcarbamoyl-4-[(4′-trifluoromethylbiphenyl-2-carbonyl)amino]benzyl}methylamino)acetoxy]benzoic acid methyl ester] as the compound, how does the IC50 read?
Answer: Its IC50 is 10 to 100 nM.

Question: For `CC(=O)NCCOC(=O)c1ccc(OC(=O)CCCc2ccc(NC(=O)c3ccccc3-c3ccc(C(F)(F)F)cc3)c(C(=O)N(C)C)c2)cc1` [Compound 1-77, 4-[4-(3-dimethylcarbamoyl-4-{(4′-trifluoromethylbiphenyl-2-carbonyl)amino}phenyl)butyryloxy]benzoic acid 2-acetylaminoethyl ester], which IC50 is on record?
Answer: The IC50 was less than 10 nM.

Question: For “3-chloro-4-[4-(3-dimethylcarbamoyl-4-{[6-methyl-2-(4-trifluoromethylphenyl)pyridine-3-carbonyl]amino}phenyl)butyryloxy]-5-methoxybenzoic acid methyl ester sulfonate [Compound 1-56]”, which IC50 is on record?
Answer: The IC50 was less than 10 nM.

Question: For `CCOC(=O)c1cc(OC)c(OC(=O)CCCc2ccc(NC(=O)c3ccc(C)nc3-c3ccc(C(F)(F)F)cc3)c(C(=O)N(C)C)c2)c(C(=O)OC)c1` [Compound 1-54, 4-[4-(3-dimethylcarbamoyl-4-{[6-methyl-2-(4-trifluoromethylphenyl)pyridine-3-carbonyl]amino}phenyl)butyryloxy]-5-methoxyisophthalic acid 1-ethyl ester 3-methyl ester], which IC50 is on record?
Answer: The IC50 was less than 10 nM.

Question: How did the IC50 turn out when `Cc1ccc(C(=O)Nc2ccc(CCCC(=O)Oc3ccc(C(=O)OCc4ccccc4)cc3)cc2C(=O)N(C)C)c(-c2ccc(C(F)(F)F)cc2)n1` [Compound 1-80, 4-[4-(3-dimethylcarbamoyl-4-{[6-methyl-2-(4-trifluoromethylphenyl)pyridine-3-carbonyl]amino}phenyl)butyryloxy]benzoic acid benzyl ester] was run?
Answer: Its IC50 is less than 10 nM.

Question: With `COC(=O)c1ccc(OC(=O)CCCc2ccc(NC(=O)c3ccccc3-c3ccc(C(F)(F)F)cc3)c(C(=O)N(C)C)c2)c(C(C)C)c1` [Compound 1-68, 4-[4-(3-dimethylcarbamoyl-4-{(4′-trifluoromethylbiphenyl-2-carbonyl)amino}phenyl)butyryloxy]-3-isopropylbenzoic acid methyl ester] as the compound, how does the IC50 read?
Answer: The IC50 was less than 10 nM.

Question: How did the IC50 turn out when `COC(=O)c1ccc(OC(=O)CCCc2ccc(NC(=O)c3ccncc3-c3ccc(C(F)(F)F)cc3)c(C(=O)N(C)C)c2)cc1` [Compound 1-30, 4-[4-(3-dimethylcarbamoyl-4-{[3-(4-trifluoromethylphenyl)pyridine-4-carbonyl]amino}phenyl)butyryloxy]benzoic acid methyl ester] was run?
Answer: The IC50 was 10 to 100 nM.

Question: Which IC50 does the source give for `CCOC(=O)c1cc(C)c(OC(=O)CCCc2ccc(NC(=O)c3ccc(C)nc3-c3ccc(C(F)(F)F)cc3)c(C(=O)N(C)C)c2)c(Cl)c1` [Compound 1-112, 3-chloro-4-[4-(3-dimethylcarbamoyl-4-{[6-methyl-2-(4-trifluoromethylphenyl)pyridine-3-carbonyl]amino}phenyl)butyryloxy]-5-methylbenzoic acid ethyl ester] here?
Answer: The IC50 was less than 10 nM.

Question: For `COC(=O)c1ccc(-c2nc(C)ccc2C(=O)Nc2ccc(CCCC(=O)Oc3c(C)cc(C(=O)OC)cc3Cl)cc2C(=O)N(C)C)cc1` [Compound 4-1, 3-chloro-4-[4-(3-dimethylcarbamoyl-4-{[2-(4-methoxycarbonylphenyl)-6-methylpyridine-3-carbonyl]amino}phenyl)butyryloxy]-5-methylbenzoic acid methyl ester], which IC50 is on record?
Answer: Its IC50 is less than 10 nM.

Question: `CCOc1cc(C(=O)OC)cc(Cl)c1OC(=O)CCCc1ccc(NC(=O)c2ccc(C)nc2-c2ccc(C(F)(F)F)cc2)c(C(=O)N(C)C)c1` [Compound 1-40, 3-chloro-4-[4-(3-dimethylcarbamoyl-4-{[6-methyl-2-(4-trifluoromethylphenyl)pyridine-3-carbonyl]amino}phenyl)butyryloxy]-5-ethoxybenzoic acid methyl ester] was tested. Which IC50 did it give?
Answer: Its IC50 is less than 10 nM.

Question: For `CN(C)C(=O)c1cc(CCCC(=O)Oc2ccc(C(=O)O)cc2)ccc1NC(=O)c1ccccc1-c1ccc(C(F)(F)F)cc1` [Compound 1-25, 4-(4-{3-dimethylcarbamoyl-4-[(4′-trifluoromethylbiphenyl-2-carbonyl)amino]phenyl}butyryloxy) benzoic acid], which IC50 is on record?
Answer: Its IC50 is 100 to 1000 nM.
